From US6613758B1, “Method for treating osteoporosis in castrated prostatic cancer patients” (Barr Laboratories, Inc., priority 1999, dated 2003)

Experiments:
[1] = 367 evaluable patients; criteria weight gain and pain relief; cited from earlier work
[2] = cited from earlier work
[3] = men; cited from earlier work
[4] = orchiectomized patients, 6 months, 150 mg/day CPA (50 mg t.i.d.); cited from earlier work
[5] = male subjects, oral, one 50 mg dose; cited from earlier work
[6] = castrated adult rats; cited from earlier work
[7] = pharmacokinetics of CPA in humans, plasma concentration; assay type: in vivo, human; details: longer period of continual dosing of 50 mg per day
Description: The Androcur® Monograph, Berlex, Canada (1997) reports on the pharmacokinetics of CPA in humans. […] Blood levels of CPA are known to be generally dose dependent.

[8] = tested on: human breast cancer ZR-75-1 cells; details: low concentrations, in vitro; cited from earlier work
[9] = 17 patients, goserelin alone; cited from earlier work

CC(=O)O[C@]1(C(C)=O)CC[C@H]2[C@@H]3C=C(Cl)C4=CC(=O)[C@@H]5C[C@@H]5[C@]4(C)[C@H]3CC[C@@]21C [CPA, Cyproterone acetate]
patients with general improvement in subjective assessment of quality of life [1]: 70%
discontinuation due to side effects ([2]; 89 orchiectomized patients, 50 mg/day CPA, 2 to 152 months): in no case
cases of hepatocellular carcinoma ([2]; over 2500 patients, long term CPA use): Not a single case
threshold value for an antiandrogen effect [3]: 50 mg
number of patients experiencing hot flashes or outbreaks of sweating [4]: decreased
mean plasma concentration [5]: about 700 nmol/L
inhibition of complete involution of the ventral prostate [6]: very weak
cumulative plasma level, steady state [7]: ≥ 750 nmol/L
androgenic activity [8]: possess androgenic activity

C#C[C@]1(O)CC[C@H]2[C@@H]3CCC4=CC(=O)CC[C@]4(C)[C@H]3CC[C@@]21C [ethisterone]
androgenic activity [8]: possess androgenic activity

CC(C)C[C@H](NC(=O)[C@@H](COC(C)(C)C)NC(=O)[C@H](Cc1ccc(O)cc1)NC(=O)[C@H](CO)NC(=O)[C@H](Cc1c[nH]c2ccccc12)NC(=O)[C@H](Cc1cnc[nH]1)NC(=O)[C@@H]1CCC(=O)N1)C(=O)N[C@@H](CCCNC(=N)N)C(=O)N1CCC[C@H]1C(=O)NNC(N)=O [goserelin]
patients with transient increase in bone pain [9]: 58.5%

C[C@]12CC[C@H]3[C@@H](CCC4=CC(=O)CC[C@@H]43)[C@@H]1CC[C@@H]2O [nor-testosterone]
androgenic activity [8]: possess androgenic activity
